The results in this text go back to US9499493B2, “2,4-pyrimidinediamine compounds and their uses” (Rigel Pharmaceuticals, Inc., priority 2002, dated 2016).

A value given as a limit tells only on which side of the number the result lay.

Assay [1] relates to cultured human mast cells (CHMC). As to the kind of experiment: CHMC low cell density ionomycin activation: tryptase assay. The assay is classed as cell-based.
Assay [2] concerns FcγRI-mediated degranulation. As to the kind of experiment: FcγRI receptor-mediated degranulation (activation with anti-human IgG Fab fragment). The assay is classed as cell-based. Particulars: cells not primed with IgE, activated with rabbit anti-human IgG Fab fragment.
Assay [3] deals with cultured human mast cells (CHMC). As to the kind of experiment: CHMC high cell density IgE activation: TNFalpha. Particulars: anti-IgE activation; read-out: CHMC high density TNF-alpha. The assay is classed as cell-based. The method, then:
(§1) Inhibition of degranulation was measured at both low and high cell density by quantifying the release of the granule specific factors tryptase, histamine and hexosaminidase. Inhibition of release and/or synthesis of lipid mediators was assessed by measuring the release of leukotriene LTC4 and inhibition of release and/or synthesis of cytokines was monitored by quantifying TNF-α, IL-6 and IL-13. Tryptase and hexosaminidase were quantified using fluorogenic substrates as described in their respective examples. […] The protocols of the various assays are provided below.
(§2) After sensitizing, cells are counted, pelleted (1000 rpm, 5-10 minutes), and resuspended at 1-2×10^6 cells/ml in MT buffer. Add 100 ul of cell suspension to each well and 100 ul of compound dilutions. The final vehicle concentration is 0.5% DMSO. Incubate at 37° C. (5% CO2) for 1 hour. After 1 hour of compound treatment, stimulate cells with 6× anti-IgE. Mix wells with the cells and allow plates to incubate at 37° C. (5% CO2) for one hour. After 1 hour incubation, pellet cells (10 minutes, 1000 RPM) and collect 200 ul per well of the supernatant, being careful not to disturb pellet. Place the supernatant plate on ice. During the 7-hour step (see next) perform tryptase assay on supernatant that had been diluted 1:500. Resuspend cell pellet in 240 ul of CM media containing 0.5% DMSO and corresponding concentration of compound. Incubate CHMC cells for 7 hours at 37° C. (5% CO2). After incubation, pellet cells (1000 RPM, 10 minutes) and collect 225 ul per well and place in −80° C. until ready to perform ELISAS. ELISAS are performed on appropriately diluted samples (determined empirically for each donor cell population so that the sample measurement falls within the standard curve) following the supplier's instructions.

For assay [4] the test system is unchanged. As to the kind of experiment: CHMC low cell density IgE activation: tryptase assay. The assay is classed as cell-based. The conditions noted are these: anti-IgE. In outline:
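Read-out: tryptase released into supernatant, measured by substrate turnover over 30 min at RT. Low-density CHMC (1000-1500 cells/well, per donor degranulation activity) in MT buffer, 1 hr at 37° C, then anti-IgE challenge 30 min at 37° C.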

Assay [5] deals with bone marrow derived mast cells (BMMC). As to the kind of experiment: BMMC high cell density IgE activation: histamine. It is filed as cell-based, mouse. The conditions noted are these: anti-IgE, second part of TABLE 1. The method, then: as §1
(§3) After sensitizing, cells are counted, pelleted (1000 rpm, 5-10 minutes), and resuspended at 1-3×10^6 cells/ml in MT buffer. Add 100 ul of cell suspension to each well and 100 ul of compound dilutions. The final vehicle concentration is 0.5% DMSO. Incubate at 37° C. (5% CO2) for 1 hour. After 1 hour of compound treatment, stimulate cells with 6× stimulus (60 ng/ml DNP-BSA). Mix wells with the cells and allow plates to incubate at 37° C. (5% CO2) for one hour. After 1 hour incubation, pellet cells (10 minutes, 1000 RPM) and collect 200 ul per well of the supernatant, being careful not to disturb pellet, and transfer to a clean tube or 96-well plate. Place the supernatant plate on ice. During the 4-5 hour step (see next) perform the hexosiminidase assay. Resuspend cell pellet in 240 ul WEI-conditioned media containing 0.5% DMSO and corresponding concentration of compound. Incubate BMMC cells for 4-5 hours at 37° C. (5% CO2). After incubation, pellet cells (1000 RPM, 10 minutes) and collect 225 ul per well and place in −80° C. until ready to perform ELISAS. ELISAS are performed on appropriately diluted samples (determined empirically for each donor cell population so that the sample measurement falls within the standard curve) following the supplier's instructions.

Assay [6] has the same test system. As to the kind of experiment: BMMC high cell density IgE activation: TNFalpha. It is filed as cell-based, mouse. The conditions noted are these: anti-IgE, second part of TABLE 1, read-out: BMMC anti-IgE TNF-alpha IC50. The method, then: as §1, §3
Assay [7] shares this test system. As to the kind of experiment: BMMC high cell density IgE activation: LTC4. It is filed as cell-based, mouse. The conditions noted are these: anti-IgE, second part of TABLE 1. The method, then: as §1, §3
The test system is the same in assay [8]. As to the kind of experiment: BMMC high cell density IgE activation: IL-6. Particulars: anti-IgE, second part of TABLE 1. The assay is classed as cell-based, mouse. Here is the method: as §1, §3
Assay [9] shares this test system. As to the kind of experiment: BMMC high cell density IgE activation: hexosaminidase. The assay is classed as cell-based, mouse. The conditions noted are these: anti-IgE, second part of TABLE 1, read-out: BMMC anti-IgE hexos. IC50. The method, then: as §3
Hexosaminidase assay: In a solid black 96-well assay plate, add 50 uL hexosaminidase substrate (4-methylumbelliferyl-N-acetyl-(3-D-glucosaminide; 2 mM) to each well. Add 50 uL of BMMC cell supernatant (see above) to the hexoseaminidase substrate, place at 37° C. for 30 minutes and read the plate at 5, 10, 15, and 30 minutes on a spectrophotometer.

For assay [10], the system named is cultured human mast cells (CHMC). As to the kind of experiment: CHMC high cell density IgE activation: tryptase. The assay is classed as cell-based. The conditions noted are these: anti-IgE activation. The method, then: as §2
For assay [11] the test system is unchanged. As to the kind of experiment: CHMC high cell density IgE activation: hexos (hexosaminidase) release. Particulars: anti-IgE activation. It is filed as cell-based. Here is the method: as §1, §2
Assay [12] shares this test system. Nature of the assay: CHMC high cell density IgE activation: histamine. The assay is classed as cell-based. Particulars: anti-IgE activation. Here is the method:
as §1, §2

For the compound `CNC(=O)COc1cccc(Nc2ncc(F)c(Nc3ccc(OC(F)(F)F)c(Cl)c3)n2)c1` [R920410, N4-(3-Chloro-4-trifluoromethoxyphenyl)-5-fluoro-N2-[3-(N-methylamino)carbonylmethyleneoxyphenyl]-2,4-pyrimidinediamine], the IC50 in [1] is greater than 10 µM. The “FcγRI-mediated degranulation (in words)” value in assay [2] was “inhibit FcγRI-mediated degranulation”.

In the case of `CNC(=O)COc1cccc(Nc2ncc(F)c(Nc3ccc4c(c3)NC(=O)C(F)(F)O4)n2)c1` [R921303, N4-[(2,2-Difluoro-4H-benzo[1,4]oxazin-3-one)-6-yl]-5-fluoro-N2-[3-(methylaminocarbonylmethyleneoxy)phenyl]-2,4-pyrimidinediamine], in [2], the “FcγRI-mediated degranulation (in words)” value was “inhibit FcγRI-mediated degranulation”.

Regarding `Fc1cnc(Nc2cccc(OCCN3CCOCC3)c2)nc1Nc1ccc2c(c1)OCCO2` [R926486, N4-(3,4-Ethylenedioxyphenyl)-5-fluoro-N2-[3-[2-(N-morpholino)ethyleneoxy]phenyl]-2,4-pyrimidinediamine], the IC50 in assay [3] came out at 0.455 µM; in assay [4], 0.647 µM; in [1] it was 7.4 µM.

In the case of `CNC(=O)COc1cccc(Nc2nc(Nc3cccc(O)c3)ncc2C(F)(F)F)c1` [R926741, N2-(3-Hydroxyphenyl)-5-trifluoromethyl-N4-[3-(N-methylamino)carbonylmethyleneoxyphenyl]-2,4-pyrimidinediamine], the IC50 is 1.02 µM in [5]; 0.772 µM in assay [6]; greater than 10 µM in assay [7]; 2.91 µM in assay [4]; greater than 10 µM in [1]; 0.537 µM in assay [8]. Also, the IC50 in [9] is 0.961 µM.

Regarding `O=C(NC(CO)CO)c1cc2cc(Nc3ncc(F)c(Nc4ccc5c(c4)OCCO5)n3)ccc2o1` [R926785, N2-[2-(N-1,3-Dihydroxy-2-propylamino)carbonylbenzofuran-5-yl]-N4-(3,4-ethylenedioxyphenyl)-5-fluoro-2,4-pyrimidinediamine], the IC50 in assay [5] is 0.561 µM; in assay [6] it was 1.31 µM; in assay [7] it was 1.41 µM; in assay [1], greater than 10 µM; in [8], 0.513 µM; in assay [9], 0.989 µM.

In the case of `Cc1cc(Nc2ncc(F)c(Nc3ccc4c(c3)NC(=O)C(F)(F)O4)n2)cc(Cl)c1O` [R926971], in assay [2], the “FcγRI-mediated degranulation (in words)” value is “inhibit FcγRI-mediated degranulation”.

Take `Oc1cccc(Nc2ncc(F)c(Nc3ccc(OCc4nc(-c5ccccc5)no4)cc3)n2)c1` [R935138, 5-Fluoro-N2-(3-hydroxyphenyl)-N4-[4-(3-phenyl-1,2,4-oxadiazol-5-yl)methyleneoxyphenyl]-2,4-pyrimidinediamine]: the IC50 in assay [5] is less than 0.22 µM; in [6] it was 0.409 µM; in assay [7], 0.373 µM; in [4] it was 0.096 µM; in assay [1] it was 0.552 µM; in assay [8] it was less than 0.22 µM. In assay [9], the IC50 is less than 0.22 µM.

As for `Cc1cc(Nc2nc(Nc3cccc(OCC(=O)N4CCOCC4)c3)ncc2F)cc(Cl)c1O` [R940265, N4-(3-Chloro-4-hydroxy-5-methylphenyl)-5-fluoro-N2-[3-(N-morpholino)carbonylmethyleneoxyphenyl]-2,4-pyrimidinediamine], the IC50 in assay [5] was 0.306 µM; in assay [6], 1.13 µM; in [7], 1.21 µM; in assay [4], 0.239 µM; in assay [1] it was greater than 10 µM; in assay [8], 0.486 µM. The IC50 in [9] stood at 0.981 µM.

On to `CNC(=O)COc1cccc(Nc2ncc(F)c(Nc3cccc(C(C)(C)C)c3)n2)c1` [R940276, N4-(3-tert-Butylphenyl)-N2-[3-(N-methylamino)carbonylmethyleneoxyphenyl]-5-fluoro-2,4-pyrimidinediamine], for which the IC50 in assay [5] is 0.073 µM; in [6], 0.251 µM; in assay [7] it was 0.332 µM; in assay [4], 0.211 µM; in [1], greater than 10 µM; in assay [8], less than 0.056 µM. Besides, the IC50 in assay [9] stood at 0.136 µM.

For the compound `CC(C)(C)c1cccc(Nc2nc(Nc3cccc(OCC(=O)NCC(O)CO)c3)ncc2F)c1` (stereo not shown) [R940277, N4-(3-tert-Butylphenyl)-N2-[3-(N-2,3-dihydroxypropylamino)carbonylmethyleneoxyphenyl]-5-fluoro-2,4-pyrimidinediamine], the IC50 in [5] was 0.315 µM; in [6], 0.262 µM; in assay [7], 0.625 µM; in assay [1], greater than 10 µM; in [8], 0.181 µM; in assay [9], 0.279 µM.

Take `CNC(=O)COc1cccc(Nc2ncc(F)c(Nc3ccc4c(n3)NC(=O)C(C)(C)O4)n2)c1` [R940347, N4-[(2,2-Dimethyl-4H-5-pyrido[1,4]oxazin-3-one)-6-yl]-5-fluoro-N2-[3-(methylaminocarbonylmethyleneoxy)phenyl]-2,4-pyrimidinediamine]: the IC50 in assay [4] is 0.063 µM. Further, the “FcγRI-mediated degranulation (in words)” value in assay [2] is listed as “inhibit FcγRI-mediated degranulation”.

Regarding `O=C1Nc2cc(Nc3ncc(F)c(Nc4ccc5c(c4)NC(=O)C(F)(F)O5)n3)ccc2OC1(F)F` [R940352, N2,N4-[(2,2-Difluoro-4H-benzo[1,4]oxazin-3-one)-6-yl]-5-fluoro-2,4-pyrimidinediamine], the IC50 in assay [4] was 0.101 µM; in [1] it was greater than 10 µM. The “FcγRI-mediated degranulation (in words)” value in assay [2] is “inhibit FcγRI-mediated degranulation”.

As for `Cc1nc(COc2cccc(Nc3ncc(F)c(Nc4ccc5c(c4)OCCO5)n3)c2)no1` [R945128, N4-(3,4-Ethylenedioxyphenyl)-5-fluoro-N2-[3-(5-methyl-1,2,4-oxadiazol-3-yl)methyleneoxyphenyl]-2,4-pyrimidinediamine], the IC50 in assay [10] was 1.75 µM; in assay [3] it was greater than 2 µM; in assay [1] it was 8.8 µM; in assay [11] it was 1.28 µM; in assay [12], 0.547 µM.

Turning to `CNC(=O)CNc1cccc(Nc2ncc(F)c(Nc3ccc4c(c3)OCCO4)n2)c1` [R950191], the IC50 in assay [5] was greater than 2 µM; in assay [6], less than 0.22 µM; in [7], 0.401 µM; in assay [4], 0.178 µM; in assay [1] it was greater than 10 µM; in assay [8] it was less than 0.22 µM. Moreover, the IC50 in assay [9] was less than 0.22 µM.
